Consider three compounds from patent US6384074B1, “Cell growth activating composition containing compound having labdane structure” (Takasago International Corporation, priority 1998, dated 2002).

Broadly, the inhibition is the percentage by which the read-out fell short of the control.

Test [1] addresses T1, tyrosinase in B16 melanoma cells (Mus musculus, UniProt P11344).
T1 construct: the resulting supernatant was used as a crude enzyme solution; endogenous in cells; host or cells: B16 melanoma cells (Triton X100 lysate, sonicated, 11,000 G supernatant)
T1 sequence (P11344 19-533): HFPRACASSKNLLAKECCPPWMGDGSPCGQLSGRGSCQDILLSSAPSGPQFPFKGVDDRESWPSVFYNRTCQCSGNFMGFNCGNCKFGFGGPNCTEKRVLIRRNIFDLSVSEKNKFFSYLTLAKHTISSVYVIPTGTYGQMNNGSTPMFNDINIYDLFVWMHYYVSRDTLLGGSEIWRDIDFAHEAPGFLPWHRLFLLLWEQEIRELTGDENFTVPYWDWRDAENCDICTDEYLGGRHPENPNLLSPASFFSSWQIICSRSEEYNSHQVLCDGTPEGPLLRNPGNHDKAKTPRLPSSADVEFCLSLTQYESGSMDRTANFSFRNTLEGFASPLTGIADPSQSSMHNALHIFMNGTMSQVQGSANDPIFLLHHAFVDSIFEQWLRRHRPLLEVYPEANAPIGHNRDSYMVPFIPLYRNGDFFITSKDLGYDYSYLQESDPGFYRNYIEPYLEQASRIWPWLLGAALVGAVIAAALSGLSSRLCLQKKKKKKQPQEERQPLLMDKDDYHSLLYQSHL
Briefly: Test of tyrosinase inhibition in B16 melanoma cells (crude enzyme solution). Format: biochemical. Particulars: 25 ppm, L-DOPA substrate, 37° C. 3 hours. As for the experimental part: B16 melanoma cells were cultured for 3 days in DMEM containing 10% FBS at 37° C. in the presence of 5% carbon dioxide. The cells proliferated after culture were recovered by treatment with trypsin, then suspended in PBS containing 0.1% Triton X100 at a density of ten million cells/ml and disrupted by sonication. The product obtained was centrifuged at 11,000 G for 20 minutes, and the resulting supernatant was used as a crude enzyme solution. Added thereto was 0.2 ml of crude enzyme solution. The mixture was preliminarily kept at 37° C. for 5 minutes, and 0.2 ml L-DOPA solution (0.5 mg/ml) was added as the substrate, and the mixture was kept at 37° C. for 3 hours.

For test [2], the system named is Bacillus subtilis PCI 219 IFO 3134. The test is described as follows: Anti-bacterial activity test, agar medium dilution method. It counts as cell-based. Particulars: Bs-1. As for the experimental part: (§1) The aerobic microorganisms were examined in an agar medium dilution method and the anaerobic microorganisms were examined in a liquid medium dilution method under anaerobic culture conditions. Muller Hinton agar medium (DIFCO) was heated and dissolved and 10 ml of the medium was introduced into each test tube, sterilized and used. The sample was prepared by dissolving in ethanol and the resulting ethanol solution was diluted 2-fold serially with ethanol, and 100 micro-liters of sample solution were added to 10 ml of each dissolved agar medium, then stirred, introduced into a Petri dish of 9 cm in diameter, and solidified at room temperature. Each test microorganism in a well grown slant was inoculated via one loop of platinum into 10 ml Muller Hinton broth (DIFCO) and cultured with shaking at 27° C. for 24 hours and used as a microbial fluid. This fluid was diluted at 10^8 CFU (Colony forming unit)/ml, and 5 micro-liters of the diluted fluid were inoculated onto the agar and cultured at 37° C. overnight. Inoculation of the microorganism was conducted using microplanter MIT-P for 27 tubes test microorganisms (Sakuma Seisakusho K. K.).

In test [3] the test system is Staphylococcus aureus IFO 12732. Described as above. Format: cell-based. Particulars: Sa-3. As for the experimental part:
as §1

Test [4] deals with Corynebacterium minutissimum ATCC 23348. The test is described as above. It counts as cell-based. Particulars: Cm-1. As for the experimental part:
as §1

The subject of test [5] is Corynebacterium xerosis JCM 1324. Described as above. It counts as cell-based. As to conditions: Cx-2. As for the experimental part:
as §1

For test [6], the system named is Staphylococcus epidermidis var. H-6. The test is described as above. It counts as cell-based. Particulars: Se-2. As for the experimental part:
as §1

In test [7] the test system is Staphylococcus epidermidis JCM 2414. Described as above. It counts as cell-based. Particulars: Se-1. As for the experimental part:
as §1

Test [8] deals with Malassezia furfur IFO 0656. The test is described as above. It counts as cell-based. Particulars: Mf-1. As for the experimental part:
as §1

The subject of test [9] is Propinibadterium Acnes ATCC 12818. Briefly: Anti-bacterial activity test, liquid medium dilution method (anaerobic). It counts as cell-based. As to conditions: Pa-1, anaerobic. As for the experimental part: (§2) The aerobic microorganisms were examined in an agar medium dilution method and the anaerobic microorganisms were examined in a liquid medium dilution method under anaerobic culture conditions. 10 ml GAM broth (Nissui) was introduced into each test tube equipped with a cap and sterilized. 100 micro-liter of the sample solution prepared for agar medium dilution method was added to each test tube and lightly stirred, and 100 micro-liter test microbial solution (10^7 CFU/ml) was added thereto, then capped and incubated at 37° C. The test microbial solution was prepared by introducing 100 micro-liter stock microbial solution into 10 ml GAM broth in a test tube then capping the tube and fermenting it at 37° C. overnight.

For test [10], the system named is streptococcus mutans JCM 5157. Described as above. It counts as cell-based. Particulars: Su-1, anaerobic. As for the experimental part: as §2
Test [11] has as its system mushroom-derived tyrosinase. Briefly: Mushroom tyrosinase inhibition test. Format: biochemical. As to conditions: 25 ppm, L-tyrosine substrate, 37° C. 30 minutes. As for the experimental part:
After reaction, the absorbance (OD) at a wavelength of 490 nm was measured and the degree of inhibition of tyrosinase reaction was determined according to the following equation. […] Sample: The buffer, the enzyme solution, the substrate solution and the sample solution Sample-free: The buffer, the enzyme solution and the substrate solution Blank: The buffer and the enzyme solution

The subject of test [12] is B16 melanoma cells. Briefly: Melanin formation prevention test (melanin production and cell proliferation). Format: cell-based. As to conditions: for Degree of cell proliferation: relative to ethanol control. As for the experimental part:
B16 melanoma cells were suspended (10,000 cells/ml) in DMEM (Dulbecco's modified eagle medium) containing 10% FBS (fetal bovine serum) and 8 ml of the suspension was added to a cell culture bottle with a 25 cm^2 bottom surface area, and cultured at 37° C. in the presence of 5% carbon dioxide for 3 days. After 3 days of culture, the old medium was exchanged with 8 ml of fresh medium. 40 micro-liters of a sample solution, in which compounds of the present invention had been dissolved in ethanol to give a final concentration shown in the table, were further added thereto. As the control, ethanol only was added. After the medium change, the cells were further cultured for 3 days under the same conditions. After culture was finished, the medium was removed, and the cells were recovered by treatment with trypsin (DIFCO) and suspended in 4 ml of phosphate buffered saline (PBS) and a predetermined amount ( 1/40) of this suspension was used to measure the number of cells in a Coultar counter (Sysmex Co.) to determine the degree of cell proliferation.
The degree of cell proliferation was determined according to the following equations:
Degree of cell proliferation (%)=(number of cells in sample)/(number of cells in control)×100
The remainder of the cell suspension was centrifuged and then washed with 5% trichloroacetic acid, then with ethanol/ethyl ether (3:1 by volume), and with ethyl ether and the cells were dried, and 2N—NaOH was added thereto to dissolve (melanin in) the cells under heating at 70° C. and measured for its optical density (OD) at 420 nm. Using a calibration curve of synthetic melanin, the amount of melanin/million cells was determined from the OD and the degree of inhibition of melanin production was determined according to the following equation:
Degree of inhibition of melanin (%)=(amount of melanin in control−amount of melanin in sample)/(amount of melanin in control)×100

Test [13] has as its system B16 melanoma cells. Briefly: Combination test with existing tyrosinase inhibitors (method of Test Example 1). Format: cell-based. Particulars: 0.4 ppm, alone; Table 2, combined use with arbutin. As for the experimental part:
B16 melanoma cells were suspended (10,000 cells/ml) in DMEM (Dulbecco's modified eagle medium) containing 10% FBS (fetal bovine serum) and 8 ml of the suspension was added to a cell culture bottle with a 25 cm^2 bottom surface area, and cultured at 37° C. in the presence of 5% carbon dioxide for 3 days. After 3 days of culture, the old medium was exchanged with 8 ml of fresh medium. 40 micro-liters of a sample solution, in which compounds of the present invention had been dissolved in ethanol to give a final concentration shown in the table, were further added thereto. As the control, ethanol only was added. After the medium change, the cells were further cultured for 3 days under the same conditions. […] Degree of cell proliferation (%)=(number of cells in sample)/(number of cells in control)×100 […] Using a calibration curve of synthetic melanin, the amount of melanin/million cells was determined from the OD and the degree of inhibition of melanin production was determined according to the following equation: Degree of inhibition of melanin (%)=(amount of melanin in control−amount of melanin in sample)/(amount of melanin in control)×100 […]

Test [14] concerns UV Ray-induced Pigment Stains. The test is described as follows: Effect of diminishing UV ray-induced pigment stains in guinea pigs. Format: in vivo, brown guinea pigs. Particulars: 7% ethanol solution applied once per day on UVB-irradiated skin. The text has this:
Hair was carefully removed from the back of 5 brown guinea pigs, and a shielding plate provided with four 2.5 cm×2.5 cm openings was attached to the portion from which hair had been removed, followed by irradiating it 3 times every second day with UVB rays at an intensity of 450 mj/cm^2. Immediately after the irradiation of UVB rays, a 70 micro-liters sample was applied onto the irradiated site once per day for 35 days, and the amount of pigment diminished by this treatment was examined on the days shown in Table 5. […]
For evaluation of the activity, each application site was measured by a calorimeter (CR200b, Minolta Co Ltd.). ΔLx is the difference between the L value after the sample application (value changing with time) and the L value of the portion before the sample application started, and then ΔΔL value was determined by subtracting ΔLo value (i.e. the value similarly determined for the portion to which ethanol was applied) from the ΔLx value. The ΔΔL value can be determined according to the equation: […]
Lo: L value of the test site (site to which the sample was applied) before sample application
Lx : L value of the test site (site to which the sample was applied) on Day x after sample application
L′o : L value of the control site (site to which ethanol was applied) before ethanol application
L′x : L value of the control site (site to which ethanol was applied) on Day x after ethanol application

Test [15] relates to Human-derived normal skin fibroblasts (NB1RGB). Briefly: Test of cell activating activity (fibroblast proliferation). Format: cell-based. Particulars: 8.0 ppm, relative to ethanol control (100). As for the experimental part:
Human-derived normal skin fibroblasts (NB1RGB: Institute of Physical and Chemical Research) were suspended into DMEM containing 10% FBS to give a concentration of 20,000 cells/ml, and 5 ml each of this cellular suspension was introduced into each of 25 cm^2 bottles, cultured at 37° C. in the presence of 5% carbon dioxide for 24 hours. To each bottle, was added 10 micro-liter (0.2%) of the ethanol solution containing the compound to give the final concentration shown in Table 8. The cells were cultured for an additional 3 days. After 3 days the old medium was discarded and 5 ml fresh medium was added, and the sample was further added thereto. After this exchange of the medium, the cells were further cultured for another 3 days. Then cells were removed with trypsin and the number of cells in each bottle was counted with a Coultar counter. Simultaneously, as the control, only ethanol was added and the NB1RGB cells were cultured and the number of cells were counted in the same manner. The number of cells in each bottle to which the sample had been added was determined as a relative value to the number (as 100) of cells in the control after cultured, and the results are shown in Table 8.

As to `CC1=C(CCC(C)CC(=O)O)C2(C)CCCC(C)(C)C2CC1` (stereo not drawn) [Compound 1, labd-8-en-15-oic acid], the “Degree of inhibition of tyrosinase in B16 melanoma cells” value in [1] was 0%. In addition, the MIC in [2] turned out to be 6.3 ppm; in test [3], 12.5 ppm; in [4], 6.3 ppm; in [5] it was 12.5 ppm; in [6], 6.3 ppm; in test [7], 6.3 ppm. In addition, the MIC in [8] amounted to 6.3 ppm; in [9] it was 12.5 ppm; in test [10], 6.3 ppm. In test [11], the “Degree of inhibition of mushroom tyrosinase” value was determined as 0%. Besides, the “Degree of melanin inhibition” value in the test with B16 melanoma cells [12] (3.1 ppm, 3 days) was 80%; in the test with B16 melanoma cells [13], 22%. Further, the “Degree of cell proliferation” value is listed as 109% in the test with B16 melanoma cells [12] (3.1 ppm) and 115% in the test with B16 melanoma cells [13].

In the case of `O=c1cc(CO)occ1O` [Kojic acid, reference compound], the ΔΔL in [14] (Day 14) was determined as 1.32; in test [14] (Day 28) it was 1.52; in [14] (Day 35) it was 1.40. For the same compound, in test [11], the “Degree of inhibition of mushroom tyrosinase” value came to 67%. For the same compound, the “Degree of cell proliferation” value with B16 melanoma cells [12] (200.00 ppm) stood at 94%. Moreover, in the test with B16 melanoma cells [12] (Mus musculus, 72 h, 200.00 ppm, 3 days, read-out: Degree of melanin inhibition), the inhibition at 200 ppm came out at 34%.

Consider labden-15-oic acid [Compound 10], for which the MIC in test [2], in [3], in test [4], in test [5], in [6] and in test [7] was 6.3 ppm each time. For the same compound, the MIC is 6.3 ppm in test [8], 12.5 ppm in test [9] and 6.3 ppm in test [10]. In addition, the “Degree of cell proliferation of fibroblasts” value in [15] was found to be 126%. The “Degree of melanin inhibition” value in the test on B16 melanoma cells [12] (6.3 ppm, 3 days) was 83%. Also, the “Degree of cell proliferation” value in the test on B16 melanoma cells [12] (6.3 ppm) is 97%.
